Source: US20140005163A1 (NOVARTIS AG, priority 2010, published 2014)

Key:
[1] = test system: PKB Ser473 phosphorylation in Rat1-myr-HA-p110 beta cells; assay: Reverse protein array assay, PKB Ser473 phosphorylation in Rat1-myr-p110 beta cells; format: cell-based; conditions: 0.5 h, pAkt Ser473, 30 minutes incubation, read-out: p-PKB IC50
Outline: (§1)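 Rat1 cells expressing myristoylated HA-tagged p110 alpha, beta or delta were plated for at least 20 h, then exposed to 8-step serial compound dilutions (0.2% DMSO final) for 30 min at 37 °C. Lysates were spotted at four dilutions on protein microarrays, and relative fluorescence intensity of phospho-Ser473 PKB was calculated.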

[2] = test system: PKB Ser473 phosphorylation in Rat1-myr-HA-p110 alpha cells; assay: Reverse protein array assay, PKB Ser473 phosphorylation in Rat1-myr-p110 alpha cells; format: cell-based; conditions: 0.5 h, pAkt Ser473, 30 minutes compound incubation, read-out: p-PKB IC50
Outline: as §1

[3] = test system: S6 Ribosomal Protein phosphorylation Ser235/236 in TSC1 null mouse embryo fibroblast (MEF) cells; assay: Reverse protein array assay, S6 Ribosomal Protein phosphorylation Ser235/236 in TSC1 null MEF cells; format: cell-based; conditions: 1 h, pS6 ribosomal protein Ser235/236, 60 minutes incubation, read-out: p-S6 IC50
Outline: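 TSC1−/− MEFs, seeded and held ≥20 h at 37 °C/5% CO2, were exposed to 8-step serial compound dilutions (0.02% DMSO final; DMSO vehicle control) for 60 min at 37 °C. Cells were then lysed on ice for 10 min and lysates spotted onto reverse protein array chips.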

[4] = biological target: T1, PI3K beta (Homo sapiens, UniProt P42338); assay: PI3K beta kinase assay (Kinase-Glo luminescence); format: biochemical
T1 construct: for the full-length p110-b subunit are generated and fused by overlapping PCR; p85(iSH2) fusion partner (see partner chain) (N); His tag (C); made in house; host or cells: baculovirus; Tn5 (Trichoplusia ni) or TiniPro insect cells
T1 sequence (P42338 with tags, fused parts or gaps limits assumed): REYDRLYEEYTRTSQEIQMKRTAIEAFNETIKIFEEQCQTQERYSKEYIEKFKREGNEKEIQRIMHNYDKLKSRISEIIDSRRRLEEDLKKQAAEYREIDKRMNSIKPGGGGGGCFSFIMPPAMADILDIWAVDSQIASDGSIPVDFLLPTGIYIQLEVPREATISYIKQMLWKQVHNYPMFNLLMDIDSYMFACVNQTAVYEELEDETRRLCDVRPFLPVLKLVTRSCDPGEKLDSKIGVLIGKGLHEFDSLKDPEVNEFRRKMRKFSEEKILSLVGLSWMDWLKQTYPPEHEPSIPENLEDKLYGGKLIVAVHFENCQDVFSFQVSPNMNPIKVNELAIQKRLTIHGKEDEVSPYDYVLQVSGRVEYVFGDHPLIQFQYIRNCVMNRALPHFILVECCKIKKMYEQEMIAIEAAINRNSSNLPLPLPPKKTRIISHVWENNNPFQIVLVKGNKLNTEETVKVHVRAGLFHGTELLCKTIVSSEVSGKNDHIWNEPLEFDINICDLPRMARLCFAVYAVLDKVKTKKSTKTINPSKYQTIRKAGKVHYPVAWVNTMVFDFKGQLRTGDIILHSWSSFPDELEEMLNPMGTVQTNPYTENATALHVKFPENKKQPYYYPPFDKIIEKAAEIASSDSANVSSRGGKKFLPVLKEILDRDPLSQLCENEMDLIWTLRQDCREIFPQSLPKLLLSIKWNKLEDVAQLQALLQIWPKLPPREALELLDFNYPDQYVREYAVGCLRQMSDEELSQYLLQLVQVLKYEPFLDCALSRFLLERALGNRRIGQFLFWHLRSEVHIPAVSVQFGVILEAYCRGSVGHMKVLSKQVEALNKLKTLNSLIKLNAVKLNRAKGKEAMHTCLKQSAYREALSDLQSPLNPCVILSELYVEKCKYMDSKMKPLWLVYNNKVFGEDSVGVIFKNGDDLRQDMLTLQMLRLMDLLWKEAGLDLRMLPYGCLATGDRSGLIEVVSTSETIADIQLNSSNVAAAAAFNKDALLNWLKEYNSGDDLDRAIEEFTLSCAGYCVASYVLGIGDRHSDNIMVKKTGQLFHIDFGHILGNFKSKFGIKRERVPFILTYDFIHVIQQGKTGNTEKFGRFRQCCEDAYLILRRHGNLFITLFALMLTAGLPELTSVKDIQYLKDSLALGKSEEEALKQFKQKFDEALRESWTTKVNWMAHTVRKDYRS
Outline: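 Residual ATP after a 60 min room-temperature reaction is quantified by Kinase-Glo luminescence. Enzyme: 25 nM BV-949 (p85 iSH2–linker–full-length p110β); substrates 1 μM ATP, 10 μg/mL PI; buffer Tris pH 7.5, MgCl2, NaCl, CHAPS, DTT. Eight concentrations per compound, four-parameter logistic IC50.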

IC50 [1] [nM]	IC50 [2] [nM]	IC50 [4] [nM]	SMILES	IC50 [3] [nM]
139	63	51	Cc1nn(C)c(C)c1-n1c(=O)n(C)c2cnc3ccc(-c4cnc(N)c(Cl)c4)cc3c21 [Example 148.1, 8-(6-Amino-5-chloro-pyridin-3-yl)-3-methyl-1-(1,3,5-trimethyl-1H-pyrazol-4-yl)-1,3-dihydro-imidazo[4,5-c]quinolin-2-one]	22
6	6	7	Cn1cc(-n2c(=O)n(C)c3cnc4ccc(-c5cncc(C(C)(C)C#N)c5)cc4c32)c(Cl)n1 [Example 220.3, 2-{5-[1-(3-Chloro-1-methyl-1H-pyrazol-4-yl)-3-methyl-2-oxo-2,3-dihydro-1H-imidazo[4,5-c]quinolin-8-yl]-pyridin-3-yl}-2-methyl-propionitrile]	< 0.5
98	75	61	CNC(=O)c1cc(-c2ccc3ncc4c(c3c2)n(-c2cn(C)nc2C)c(=O)n4C)cnc1OC [Example 125.1, 5-[1-(1,3-Dimethyl-1H-pyrazol-4-yl)-3-methyl-2-oxo-2,3-dihydro-1H-imidazo[4,5-c]quinolin-8-yl]-2-methoxy-N-methyl-nicotinamide]	2
389	14	173	CCOc1ccc(-c2ccc3ncc4c(c3c2)n(-c2c(C)nn(C)c2C)c(=O)n4C)cc1OCC [Example 27.2, 8-(3,4-Diethoxy-phenyl)-3-methyl-1-(1,3,5-trimethyl-1H-pyrazol-4-yl)-1,3-dihydro-imidazo[4,5-c]quinolin-2-one]	234
9	7	40	Cc1nn(C)cc1-n1c(=O)n(C)c2cnc3ccc(-c4cnc5ccccc5c4)cc3c21 [Example 38, 1-(1,3-Dimethyl-1H-pyrazol-4-yl)-3-methyl-8-quinolin-3-yl-1,3-dihydro-imidazo[4,5-c]quinolin-2-one]	3
93	5	57	CCOc1ccc(-c2ccc3ncc4c(c3c2)n(-c2cn(CC)nc2C)c(=O)n4C)cc1OC [Example 29.1, 8-(4-Ethoxy-3-methoxy-phenyl)-1-(1-ethyl-3-methyl-1H-pyrazol-4-yl)-3-methyl-1,3-dihydro-imidazo[4,5-c]quinolin-2-one]	9
744	265	110	CCOc1ncc(-c2ccc3ncc4c(c3c2)n(-c2cn(C)nc2C)c(=O)n4C)cc1N(C)C(C)=O [Example 63, N-{5-[1-(1,3-Dimethyl-1H-pyrazol-4-yl)-3-methyl-2-oxo-2,3-dihydro-1H-imidazo[4,5-c]quinolin-8-yl]-2-ethoxy-pyridin-3-yl}-N-methyl-acetamide]	13.4
124	78	26	Cc1cncc(-c2ccc3ncc4c(c3c2)n(-c2cn(C)nc2C)c(=O)n4C)c1 [Example 24, 1-(1,3-Dimethyl-1H-pyrazol-4-yl)-3-methyl-8-(5-methyl-pyridin-3-yl)-1,3-dihydro-imidazo[4,5-c]quinolin-2-one]	9
22	13	19	CCNc1cc(-c2ccc3ncc4c(c3c2)n(-c2cn(C)nc2C)c(=O)n4C)cnc1CO [Example 155.1, 1-(1,3-Dimethyl-1H-pyrazol-4-yl)-8-(5-ethylamino-6-hydroxymethyl-pyridin-3-yl)-3-methyl-1,3-dihydro-imidazo[4,5-c]quinolin-2-one]	2
959	126	432	CCNc1ncc(-c2ccc3ncc4c(c3c2)n(-c2c(C)nn(C)c2C)c(=O)n4C)cc1COC [Example 206.2, 8-(6-Ethylamino-5-methoxymethyl-pyridin-3-yl)-3-methyl-1-(1,3,5-trimethyl-1H-pyrazol-4-yl)-1,3-dihydro-imidazo[4,5-c]quinolin-2-one]	77
22	8	30	CCc1ncc(-c2ccc3ncc4c(c3c2)n(-c2cn(C)nc2C)c(=O)n4C)cc1O [Example 188, 1-(1,3-Dimethyl-1H-pyrazol-4-yl)-8-(6-ethyl-5-hydroxy-pyridin-3-yl)-3-methyl-1,3-dihydro-imidazo[4,5-c]quinolin-2-one]	8.15
18	18	86	COc1ccc(-c2ccc3ncc4c(c3c2)n(-c2cn(C)nc2C)c(=O)n4C)cn1 [Example 2.5, 1-(1,3-Dimethyl-1H-pyrazol-4-yl)-8-(6-methoxy-pyridin-3-yl)-3-methyl-1,3-dihydro-imidazo[4,5-c]quinolin-2-one]	10
22	10	43	CCn1cc(-n2c(=O)n(C)c3cnc4ccc(-c5ccc(OC)c(OC)c5)cc4c32)c(C)n1 [Example 1.6, 8-(3,4-Dimethoxy-phenyl)-1-(1-ethyl-3-methyl-1H-pyrazol-4-yl)-3-methyl-1,3-dihydro-imidazo[4,5-c]quinolin-2-one]	< 5
51	43	537	CCOc1ccc(-c2ccc3ncc4c(c3c2)n(-c2cn(C(C)C)nc2C)c(=O)n4C)cn1 [Example 3.7, 8-(6-Ethoxy-pyridin-3-yl)-1-(1-isopropyl-3-methyl-1H-pyrazol-4-yl)-3-methyl-1,3-dihydro-imidazo[4,5-c]quinolin-2-one]	30
13	10	407	CNc1ncc(-c2ccc3ncc4c(c3c2)n(-c2cn(C(C)C)nc2C)c(=O)n4C)cc1F [Example 141.3, 8-(5-Fluoro-6-methylamino-pyridin-3-yl)-1-(1-isopropyl-3-methyl-1H-pyrazol-4-yl)-3-methyl-1,3-dihydro-imidazo[4,5-c]quinolin-2-one]	2
17	20	76	CCc1ncc(-c2ccc3ncc4c(c3c2)n(-c2cn(C)nc2C)c(=O)n4C)cc1N [Example 208, 8-(5-Amino-6-ethyl-pyridin-3-yl)-1-(1,3-dimethyl-1H-pyrazol-4-yl)-3-methyl-1,3-dihydro-imidazo[4,5-c]quinolin-2-one]	5
10	8	28	Cn1cc(-n2c(=O)n(C)c3cnc4ccc(-c5ccc(CO)nc5)cc4c32)c(Cl)n1 [Example 16.5, 1-(3-chloro-1-methyl-1H-pyrazol-4-yl)-8-(6-hydroxymethyl-pyridin-3-yl)-3-methyl-1,3-dihydro-imidazo[4,5-c]quinolin-2-one]	13
37	17	180	Cc1nn(C)cc1-n1c(=O)n(C)c2cnc3ccc(-c4cncc(N5CCOCC5)c4)cc3c21 [Example 175.1, 1-(1,3-Dimethyl-1H-pyrazol-4-yl)-3-methyl-8-(5-morpholin-4-yl-pyridin-3-yl)-1,3-dihydro-imidazo[4,5-c]quinolin-2-one]	1
16	21	34	Cc1nn(C)cc1-n1c(=O)n(C)c2cnc3ccc(-c4cnc5ccn(C)c5c4)cc3c21 [Example 129, 1-(1,3-Dimethyl-1H-pyrazol-4-yl)-3-methyl-8-(1-methyl-1H-pyrrolo[3,2-b]pyridin-6-yl)-1,3-dihydro-imidazo[4,5-c]quinolin-2-one]	1
< 5	< 5	12	CCNc1cc(-c2ccc3ncc4c(c3c2)n(-c2cn(CC)nc2C)c(=O)n4C)cnc1C [Example 87.3, 8-(5-Ethylamino-6-methyl-pyridin-3-yl)-1-(1-ethyl-3-methyl-1H-pyrazol-4-yl)-3-methyl-1,3-dihydro-imidazo[4,5-c]quinolin-2-one]	6
409	303	317	CCOc1cncc(-c2ccc3ncc4c(c3c2)n(-c2cn(CC(=O)N(C)C)nc2C)c(=O)n4C)c1 [Example 56.2, 2-{4-[8-(5-Ethoxy-pyridin-3-yl)-3-methyl-2-oxo-2,3-dihydro-imidazo[4,5-c]quinolin-1-yl]-3-methyl-pyrazol-1-yl}-N,N-dimethyl-acetamide]	10
36	14	169	Cc1nn(C(C)C)cc1-n1c(=O)n(C)c2cnc3ccc(-c4cncc(N)c4)cc3c21 [Example 45.3, 8-(5-Amino-pyridin-3-yl)-1-(1-isopropyl-3-methyl-1H-pyrazol-4-yl)-3-methyl-1,3-dihydro-imidazo[4,5-c]quinolin-2-one]	46
